Test results as given in US10597388B2, “Pyridazinone herbicides” (FMC CORPORATION, priority 2014, dated 2020).

Key:
Type in all cases: in vivo
[1] = system: blackgrass (Alopecurus myosuroides); assay: Test A greenhouse herbicide test, postemergence; details: for Blackgrass plant response rating: 0 to 100 scale, 0 is no effect, 100 is complete control
How it was run: (§1)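 Seedlings in a loam soil and sand mix received formulated compound postemergence at the one- to two-leaf stage. Greenhouse holding lasts approximately 10 d, then injury is scored visually relative to untreated plants, 0 meaning no effect and 100 complete control.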

[2] = system: galium (catchweed bedstraw, Galium aparine); assay: Test A greenhouse herbicide test, postemergence
How it was run: as §1

[3] = system: oat, wild (wild oat, Avena fatua); assay: Test C greenhouse herbicide test, postemergence
How it was run: (§2)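 Test chemicals were applied postemergence to greenhouse plants at the 1- to 4-leaf stage (2–18 cm tall) growing in peat/vermiculite medium. After 13–15 d, injury was rated visually against untreated controls on a 0–100 scale (0 = no effect, 100 = complete control).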

kochia (Kochia scoparia) [4] = assay: Test C greenhouse herbicide test, postemergence
How it was run: as §2

[5] = system: ryegrass, Italian (Italian ryegrass, Lolium multiflorum); assay: Test A greenhouse herbicide test, pre- and postemergence
How it was run: (§3)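 Visual injury ratings, 0 (no effect) to 100 (complete control), versus untreated plants after roughly 10 d in a greenhouse. Compounds, formulated in a surfactant-containing non-phytotoxic solvent, were sprayed on loam–sand soil after sowing (pre) or on one- to two-leaf plants 2–10 cm tall (post).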

kochia (Kochia scoparia) [6] = assay: as above
How it was run: as §3

corn (Zea mays) = assay: as above; details: Postemergence
How it was run: as §3

[7] = system: wheat (Triticum aestivum); assay: as above; details: Postemergence
How it was run: as §3

[8] = system: pigweed (Amaranthus retroflexus); assay: as above
How it was run: as §3

[9] = system: foxtail, giant (giant foxtail, Setaria faberii); assay: as above
How it was run: as §3

[10] = system: barnyardgrass (Echinochloa crus-galli); assay: as above
How it was run: as §3

[11] = system: ragweed (common ragweed, Ambrosia elatior); assay: as above
How it was run: as §3

[12] = 125 g ai/ha, 0 to 100 scale where 0 is no effect and 100 is complete control
[13] = 500 g ai/ha, visual rating after approx. 10 d, 0 to 100 scale (0 no effect, 100 complete control)
[14] = Postemergence, 31 g ai/ha, scale 0 to 100 (0 no effect, 100 complete control)
[15] = Postemergence, 62 g ai/ha, 0 to 100 scale (0 no effect, 100 complete control)
[16] = Postemergence, 250 g ai/ha, scale 0 to 100, 0 no effect, 100 complete control, 13 to 15 d
[17] = postemergence, 125 g ai/ha, scale 0 to 100, 0 no effect, 100 complete control
[18] = Postemergence, 125 g ai/ha, 0 to 100 scale where 0 is no effect and 100 is complete control
[19] = Postemergence, 500 g ai/ha, visual rating after approx. 10 d, 0 to 100 scale (0 no effect, 100 complete control)
[20] = Preemergence, 125 g ai/ha, 0 to 100 scale where 0 is no effect and 100 is complete control
[21] = Preemergence, 500 g ai/ha, 0 to 100 scale where 0 is no effect and 100 is complete control
[22] = Postemergence, 125 g ai/ha, scale 0 to 100, 0 is no effect, 100 is complete control
[23] = postemergence, 62 g ai/ha, scale 0 to 100, 0 no effect, 100 complete control
[24] = Postemergence, 500 g ai/ha, 0 to 100 scale, 0 is no effect, 100 is complete control
[25] = 125 g ai/ha, visual rating after approx. 10 d, 0 to 100 scale (0 no effect, 100 complete control)
[26] = 500 g ai/ha, 0 to 100 scale, 0 is no effect, 100 is complete control
[27] = Postemergence, 31 g ai/ha, 0 to 100 scale (0 no effect, 100 complete control)
[28] = Preemergence, 500 g ai/ha, 0 to 100 scale, 0 no effect, 100 complete control
[29] = Postemergence, 125 g ai/ha, visual rating after approx. 10 d, 0 to 100 scale (0 no effect, 100 complete control)

CC(=O)Oc1c(Br)nn(C)c(=O)c1-c1c(C)ccc2ccccc12 [Compound 129]
50: Plant response rating, Kochia (kochia (Kochia scoparia) [4]; [14])
90: Oat, Wild plant response rating [3, 15] | Kochia plant response rating (kochia (Kochia scoparia) [4]; [17]) | Plant response rating, Kochia (kochia (Kochia scoparia) [6]; [19]) | Plant response rating, Kochia (kochia (Kochia scoparia) [6]; [21]) | Plant response rating, Pigweed [8, 18] | Plant response rating, Foxtail, Giant [9, 18] | Foxtail, Giant plant response rating [9, 20] | Plant response rating, Barnyardgrass [10, 18] | Barnyardgrass plant response rating [10, 20] | Ragweed plant response rating [11, 20] | Plant response rating, Ragweed [11, 21]
10: Plant response rating, Corn (corn (Zea mays); [12])
70: Plant response rating, Kochia (kochia (Kochia scoparia) [6]; [18]) | Kochia plant response rating (kochia (Kochia scoparia) [6]; [20])
85: Plant response rating, Oat, Wild [3, 14]
80: Plant response rating, Corn (corn (Zea mays); [13]) | Plant response rating, Wheat [7, 13]
60: Plant response rating, Blackgrass [1, 12] | Kochia plant response rating (kochia (Kochia scoparia) [4]; [15])
98: Plant response rating, Oat, Wild [3, 16]
95: Plant response rating, Kochia (kochia (Kochia scoparia) [4]; [16])
20: Plant response rating, Wheat [7, 12]
100: Plant response rating, Blackgrass [1, 13] | Plant response rating, Galium [2, 12] | Plant response rating, Galium [2, 13] | Oat, Wild plant response rating [3, 17] | Plant response rating, Ryegrass, Italian [5, 18] | Plant response rating, Ryegrass, Italian [5, 19] | Ryegrass, Italian plant response rating [5, 20] | Plant response rating, Ryegrass, Italian [5, 21] | Plant response rating, Pigweed [8, 19] | Pigweed plant response rating [8, 20] | Plant response rating, Pigweed [8, 21] | Plant response rating, Foxtail, Giant [9, 19] | Plant response rating, Foxtail, Giant [9, 21] | Plant response rating, Barnyardgrass [10, 19] | Plant response rating, Barnyardgrass [10, 21] | Plant response rating, Ragweed [11, 18] | Plant response rating, Ragweed [11, 19]

COc1nn(C)c(=O)c(-c2c(C)sc3ccc(Cl)cc23)c1O [Compound 100]
95: Plant response rating, Oat, Wild [3, 16] | Plant response rating, Kochia (kochia (Kochia scoparia) [4]; [22]) | Plant response rating, Kochia (kochia (Kochia scoparia) [4]; [16])
90: Plant response rating, Galium [2, 12] | Kochia plant response rating (kochia (Kochia scoparia) [4]; [23]) | Plant response rating, Ryegrass, Italian [5, 18] | Ryegrass, Italian plant response rating [5, 20] | Plant response rating, Pigweed [8, 19] | Plant response rating, Foxtail, Giant [9, 21] | Plant response rating, Ragweed [11, 18] | Plant response rating, Ragweed [11, 19]
70: Blackgrass plant response rating ([1]; 500 g ai/ha) | Oat, Wild plant response rating [3, 23] | Plant response rating, Kochia (kochia (Kochia scoparia) [6]; [18]) | Plant response rating, Kochia (kochia (Kochia scoparia) [6]; [21]) | Foxtail, Giant plant response rating [9, 20]
20: Plant response rating, Corn (corn (Zea mays); [13]) | Plant response rating, Wheat [7, 13] | Barnyardgrass plant response rating [10, 20] | Plant response rating, Barnyardgrass [10, 21]
100: Plant response rating, Galium [2, 13] | Plant response rating, Ryegrass, Italian [5, 19] | Plant response rating, Ryegrass, Italian [5, 21] | Plant response rating, Kochia (kochia (Kochia scoparia) [6]; [19]) | Pigweed plant response rating [8, 20] | Plant response rating, Pigweed [8, 21]
80: Plant response rating, Pigweed [8, 18] | Plant response rating, Foxtail, Giant [9, 18] | Plant response rating, Foxtail, Giant [9, 19] | Plant response rating, Ragweed [11, 21]
30: Kochia plant response rating (kochia (Kochia scoparia) [6]; [20]) | Plant response rating, Barnyardgrass [10, 18] | Barnyardgrass plant response rating [10, 24]
40: Plant response rating, Blackgrass [1, 12] | Ragweed plant response rating [11, 20]
0: Plant response rating, Corn (corn (Zea mays); [12]) | Plant response rating, Wheat [7, 12]
85: Plant response rating, Oat, Wild [3, 22]

CC(=O)Oc1c(C)nn(C)c(=O)c1-c1c(C)sc2ccc(C)cc12 [Compound 25]
60: Plant response rating, Blackgrass [1, 25] | Oat, Wild plant response rating [3, 27]
0: Plant response rating, Corn (corn (Zea mays); [25]) | Plant response rating, Wheat [7, 12] | Wheat plant response rating [7, 26]
30: Barnyardgrass plant response rating [10, 20]
90: Blackgrass plant response rating ([1]; 500 g ai/ha) | Plant response rating, Oat, Wild [3, 22] | Kochia plant response rating (kochia (Kochia scoparia) [6]; [20]) | Plant response rating, Pigweed [8, 29] | Plant response rating, Foxtail, Giant [9, 29] | Foxtail, Giant plant response rating [9, 24] | Foxtail, Giant plant response rating [9, 20] | Plant response rating, Foxtail, Giant [9, 28] | Barnyardgrass plant response rating [10, 24] | Plant response rating, Barnyardgrass [10, 28] | Ragweed plant response rating [11, 20]
100: Plant response rating, Galium [2, 25] | Galium plant response rating [2, 26] | Plant response rating, Kochia (kochia (Kochia scoparia) [4]; [22]) | Plant response rating, Kochia (kochia (Kochia scoparia) [4]; [16]) | Plant response rating, Ryegrass, Italian [5, 18] | Ryegrass, Italian plant response rating [5, 24] | Ryegrass, Italian plant response rating [5, 20] | Plant response rating, Ryegrass, Italian [5, 28] | Plant response rating, Kochia (kochia (Kochia scoparia) [6]; [29]) | Kochia plant response rating (kochia (Kochia scoparia) [6]; [24]) | Plant response rating, Kochia (kochia (Kochia scoparia) [6]; [28]) | Pigweed plant response rating [8, 24] | Pigweed plant response rating [8, 20] | Plant response rating, Pigweed [8, 28] | Plant response rating, Ragweed [11, 29] | Ragweed plant response rating [11, 24] | Plant response rating, Ragweed [11, 28]
20: Corn plant response rating (corn (Zea mays); [26]) | Plant response rating, Barnyardgrass [10, 29]
70: Oat, Wild plant response rating [3, 23]
95: Plant response rating, Oat, Wild [3, 16] | Kochia plant response rating (kochia (Kochia scoparia) [4]; [27]) | Kochia plant response rating (kochia (Kochia scoparia) [4]; [23])
